Common to all, as to assay: Phosphatase Inhibition Assay
Experiment [1] concerns the target T1, M-phase inducer phosphatase 1 (Homo sapiens, UniProt P30304).
T1 sequence (P30304 whole entry): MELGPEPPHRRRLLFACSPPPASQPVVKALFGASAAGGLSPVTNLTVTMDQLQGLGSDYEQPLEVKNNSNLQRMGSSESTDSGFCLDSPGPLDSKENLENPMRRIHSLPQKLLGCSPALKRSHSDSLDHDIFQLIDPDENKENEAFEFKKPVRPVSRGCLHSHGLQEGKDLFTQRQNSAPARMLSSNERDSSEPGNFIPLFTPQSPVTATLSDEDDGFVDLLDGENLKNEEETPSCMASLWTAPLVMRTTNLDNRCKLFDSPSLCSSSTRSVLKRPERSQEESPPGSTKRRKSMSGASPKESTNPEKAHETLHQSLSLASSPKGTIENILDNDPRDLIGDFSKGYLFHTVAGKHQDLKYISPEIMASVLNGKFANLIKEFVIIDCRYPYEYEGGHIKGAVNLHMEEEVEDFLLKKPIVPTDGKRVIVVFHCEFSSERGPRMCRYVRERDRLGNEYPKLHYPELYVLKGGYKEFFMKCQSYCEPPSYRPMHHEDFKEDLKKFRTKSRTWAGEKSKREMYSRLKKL
The settings on record: pH 8; 37 °C.

Experiment [2] has as its target Dual specificity protein phosphatase 3 (Homo sapiens, UniProt P51452). To be noted: pH 6.5; 37 °C.
In experiment [3] the target is T2, Tyrosine-protein phosphatase non-receptor type 1 (Homo sapiens, UniProt P18031).
T2 sequence (P18031 whole entry): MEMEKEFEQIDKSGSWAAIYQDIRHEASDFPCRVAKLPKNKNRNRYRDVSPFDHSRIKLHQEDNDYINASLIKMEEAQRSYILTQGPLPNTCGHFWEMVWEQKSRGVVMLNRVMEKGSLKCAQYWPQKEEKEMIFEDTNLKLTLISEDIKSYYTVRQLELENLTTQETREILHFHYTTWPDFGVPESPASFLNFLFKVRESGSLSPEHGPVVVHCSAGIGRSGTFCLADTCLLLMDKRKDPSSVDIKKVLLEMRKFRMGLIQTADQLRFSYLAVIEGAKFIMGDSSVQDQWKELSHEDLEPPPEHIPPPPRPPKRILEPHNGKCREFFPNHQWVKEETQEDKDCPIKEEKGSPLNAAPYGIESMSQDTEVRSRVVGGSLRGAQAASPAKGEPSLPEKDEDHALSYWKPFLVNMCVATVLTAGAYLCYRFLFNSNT
To be noted: pH 7.2; 37 °C.

Chain of Dual specificity protein phosphatase 3 (P51452 whole entry): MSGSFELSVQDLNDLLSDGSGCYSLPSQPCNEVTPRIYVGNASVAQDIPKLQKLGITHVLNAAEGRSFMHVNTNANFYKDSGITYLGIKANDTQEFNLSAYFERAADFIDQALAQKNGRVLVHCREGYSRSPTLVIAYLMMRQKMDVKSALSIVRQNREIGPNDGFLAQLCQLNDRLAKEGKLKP

One may read the IC50 as the concentration needed to halve the response being measured. Turning to `COc1cc(-c2[nH]ccc2Cl)oc1C1=c2[nH]c3cc2[C@H](C(C)C)[C@H]1CCCCCCCC=3`, the IC50 in experiment [1] is 28 µM; in experiment [2], 32 µM; in experiment [3], 38 µM.
Turning to `C/C(=C1\C=CC=N1)c1ccc(-c2ccc[nH]2)o1`, the IC50 is 40 µM in experiment [1] and 4.9 µM in experiment [2].
In the case of `C/C(=C1\C=CC=N1)c1ccc(-c2[nH]ccc2Cl)o1` [3-chloro-2-(5-{1-[(2Z)-2H-pyrrol-2-ylidene]ethyl}furan-2-yl)-1H-pyrrole, 4], the IC50 in experiment [1] amounted to 34 µM; in experiment [2], 9 µM; in experiment [3] it was 6 µM.
The corresponding values for `C=CCCCCc1ccc(/C=C2\N=C(c3ccc(CCCC=C)[nH]3)C=C2OC)[nH]1` [Acyclic analogue, 10] are > 50 µM, > 50 µM and > 50 µM.
The corresponding values for `C=CCCCCc1ccc(C=C2N=C(c3ccc(C(=O)CCC=C)[nH]3)C=C2OC)[nH]1` [Acyclic analogue, 11] are > 50 µM, > 50 µM and 32 µM.
The corresponding values for `C=CC/C=C(/C)c1ccc(C2=N/C(=C\c3ccc(CCCCC=C)[nH]3)C(OC)=C2)[nH]1` [Acyclic analogue, 12] are > 50 µM, 9 µM and 12 µM.
Turning to `C=CCCCCc1ccc(/C=C2\N=C(c3ccc[nH]3)C=C2OC)[nH]1` [Acyclic analogue, 13], the results for the IC50 in experiment [1], in experiment [2] and in experiment [3] were > 50 µM, 11 µM and 11 µM, respectively.
As for `CCc1ccc(/C=C2\N=C(c3ccc[nH]3)C=C2OC)[nH]1` [Acyclic analogue, 14], the figures for the IC50 in experiment [1], in experiment [2] and in experiment [3] were > 50 µM, 21 µM and 10 µM, respectively.
In the case of `C=CCCCCc1ccc(/C=C2\N=C(c3ccc(CCCC=C)s3)C=C2OC)[nH]1` [Acyclic analogue, 15], the figures for the IC50 in experiment [1], in experiment [2] and in experiment [3] were > 50 µM, 39 µM and 28 µM, respectively.
The corresponding values for `C=CCCCCc1ccc(/C=C2\NC(=O)C=C2OC)[nH]1` [Acyclic analogue, 16] are > 50 µM, 8 µM and 46 µM.
The corresponding values for `CCc1ccc(/C=C2\NC(=O)C=C2OC)[nH]1` [Acyclic analogue, 17] are > 50 µM, > 50 µM and > 50 µM.
The corresponding values for `COC1=CC(=O)N/C1=C\c1ccc(CCCC/C=C/CCCCC(=O)O)[nH]1` [Acyclic analogue, 18] are > 50 µM, 21 µM and 16 µM.
Turning to `COC1=CC2=N/C1=C\c1ccc([nH]1)CCCC/C=C/CCCC1=CC=C2O1` [Cyclic analogue, 7], the values for the IC50 in experiment [1], in experiment [2] and in experiment [3] were > 50 µM, 28 µM and 23 µM, respectively.
The corresponding values for `COC1=CC2=N/C1=C\c1ccc([nH]1)CCCC/C=C/CCCCCCCCCCC1=CC=C2O1` [Cyclic analogue, 8] are > 50 µM, 41 µM and 24 µM.
The corresponding values for `COC1=CC2=N/C1=C\c1ccc([nH]1)CCCC/C=C/CCCc1cccc2c1` [Cyclic analogue, 9] are > 50 µM, 30 µM and > 50 µM.
As for `CC(C)[C@H]1c2cc3[nH]c2=C(c2ccc(-c4ccc[nH]4)o2)[C@@H]1CCCCCCCC=3` [Roseophilin analogue, 3], the figures for the IC50 in experiment [1], in experiment [2] and in experiment [3] were > 50 µM, 15 µM and 10 µM, respectively.
The corresponding values for `COc1cc(-c2[nH]ccc2Cl)oc1C1=c2[nH]c3cc2[C@@H](C(C)C)[C@@H]1CCCCCCCC=3` [Roseophilin, 2] are 21 µM, 6 µM and 6 µM.

These data come from BindingDB's records for doi:10.1002/cbic.200400135 (Max Planck Institute for Coal Research, 2004).
